Reference: US8921406B2, “5-ring heteroaromatic compounds and their use as binding partners for 5-HT5 receptors” (AbbVie Deutschland GmbH & Co. KG, priority 2005, dated 2014)
Structures can show the parent of a compound that is named as a salt.

Target: T1, h5-HT5A receptor (Homo sapiens, UniProt P47898)
T1 construct: expressed in transfected cells
Experiment: h5-HT5A-[3H]5-CT binding assay
Conditions: membranes of HEK293 cells expressing h5-HT5A; 2.5 nM [3H]5-CT; read-out: Binding affinity 5-HT5A (Ki)
Method: 1. h5-HT5A-[^3H]5-CT Binding Assay
Membranes of HEK293 cells which permanently express the h5-HT5A receptor gene were incubated in 100 mM tris-HCl buffer (pH 7.7) containing 1 mM EDTA, in the presence of 2.5 nM [^3H]5-CT (total volume 600 μL). The total binding is defined as the binding that is observed when the membranes are incubated in the presence of only the radioligand. The inhibition induced by the compound is determined by incubation of cell membranes in the presence of the radioligand and various concentrations of the compound of interest. Nonspecific binding is defined as the [^3H]5-CT binding obtained by incubation of the membranes, the same as for the total binding, but in the presence of 10 μM methiothepine. Following incubation for 75 min at 30° C., the membrane suspension was filtered through a GF/B-Filter coated with 0.03% PEI, using a Skatron® harvesting system. The residual radioactivity in the filter was quantified by liquid scintillation counting.
Various concentrations of the test substances were used in both assays, and the Ki or IC50 values were determined.

T1 sequence (P47898 whole entry): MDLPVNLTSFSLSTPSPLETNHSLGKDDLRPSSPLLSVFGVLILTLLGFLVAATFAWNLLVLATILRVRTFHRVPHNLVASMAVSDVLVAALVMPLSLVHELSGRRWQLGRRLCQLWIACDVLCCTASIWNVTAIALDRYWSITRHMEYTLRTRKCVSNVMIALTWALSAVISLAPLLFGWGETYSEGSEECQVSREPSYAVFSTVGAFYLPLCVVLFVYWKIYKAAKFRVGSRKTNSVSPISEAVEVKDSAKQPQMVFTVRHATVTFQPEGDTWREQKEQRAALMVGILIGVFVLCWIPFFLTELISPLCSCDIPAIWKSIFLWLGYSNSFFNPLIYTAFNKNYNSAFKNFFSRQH

Row | SMILES | Ki
1 | COc1ccccc1Cn1c(N)nc(-c2ccccc2)c1C [Example 14, 1-(2-Methoxybenzyl)-5-methyl-4-phenyl-1H-imidazole-2-ylamine] | < 600 nM
2 | COc1ccccc1Cn1cc(-c2ccc([N+](=O)[O-])cc2)nc1N [Example 2, 1-(2-Methoxybenzyl)-4-(4-nitrophenyl)-1H-imidazole-2-ylamine] | < 600 nM
3 | COc1cccc(Cl)c1Cn1cc(-c2ccc(OC(F)(F)F)cc2)nc1N [Example 29, 1-(2-Chloro-6-methoxybenzyl)-4-(4-trifluoromethoxyphenyl)-1H-imidazole-2-ylamine] | < 600 nM
4 | COc1ccccc1Cn1cc(-c2ccc(OCc3ccccc3)cc2)nc1N [Example 48, 4-(4-Benzyloxyphenyl)-1-(2-methoxybenzyl)-1H-imidazole-2-ylamine] | < 600 nM
5 | COc1cccc(Cl)c1Cn1cc(-c2ccsc2)nc1N [Example 28, 1-(2-Chloro-6-methoxybenzyl)-4-thiophene-3-yl-1H-imidazole-2-ylamine] | < 600 nM
6 | COc1ccccc1Cn1cc(-c2ccc(Cl)cc2Cl)nc1N [Example 35, 4-(2,4-Dichlorophenyl)-1-(2-methoxybenzyl)-1H-imidazole-2-ylamine hydrochloride] | < 600 nM
7 | COc1cccc(OC)c1Cn1cc(-c2ccc(C)c(C)c2)nc1N [Example 40, 1-(2,6-Dimethoxybenzyl)-4-(3,4-dimethylphenyl)-1H-imidazole-2-ylamine hydrochloride] | < 600 nM
8 | COc1cccc(F)c1Cn1cc(-c2ccsc2)nc1N [Example 31, 1-(2-Fluoro-6-methoxybenzyl)-4-thiophene-3-yl-1H-imidazole-2-ylamine] | < 600 nM
9 | COc1ccccc1Cn1cc(-c2cccc(NS(=O)(=O)c3cccs3)c2)nc1N [Example 60, Thiophene-2-sulfonic acid {3-[2-amino-1-(2-methoxybenzyl)-1H-imidazole-4-yl]phenyl}amide] | < 600 nM
10 | COc1cccc(F)c1Cn1cc(-c2ccc(C#N)cc2)nc1N [Example 33, 4-[2-Amino-1-(2-fluoro-6-methoxybenzyl)-1H-imidazole-4-yl]benzonitrile] | < 600 nM
11 | COc1ccccc1Cn1cc(-c2ccc(C)s2)nc1N [Example 38, 1-(2-Methoxybenzyl)-4-(5-methylthiophene-2-yl)-1H-imidazole-2-ylamine] | < 600 nM
12 | COc1cccc(Cl)c1Cn1cc(-c2ccc(Cl)cc2)nc1N [Example 34, 1-(2-Chloro-6-methoxybenzyl)-4-(4-chlorophenyl)-1H-imidazole-2-ylamine] | < 600 nM
13 | COc1ccccc1Cn1cc(-c2ccc(OC(F)(F)F)cc2)nc1N [Example 22, 1-(2-Methoxybenzyl)-4-(4-trifluoromethoxyphenyl)-1H-imidazole-2-ylamine] | < 600 nM
14 | COc1ccccc1Cc1cn(-c2ccccc2)nc1N [Example 4, 4-(2-Methoxybenzyl)-1-phenyl-1H-pyrazole-3-ylamine] | > 600 nM
15 | COc1ccccc1Cn1cc(-c2ccc(NS(=O)(=O)c3ccccc3)cc2)nc1N [Example 59, N-{4-[2-Amino-1-(2-methoxybenzyl)-1H-imidazole-4-yl]phenyl}benzenesulfonamide] | < 600 nM

Continued, values first:

Row | Ki | SMILES
16 | > 600 nM | COc1ccccc1Cc1cn(-c2ccc(F)cc2)nc1N [Example 7, 1-(4-Fluorophenyl)-4-(2-methoxybenzyl)-1H-pyrazole-3-ylamine]
17 | < 600 nM | COc1ccccc1Cn1cc(-c2cccc(NS(C)(=O)=O)c2)nc1N [Example 57, N-{3-[2-Amino-1-(2-methoxybenzyl)-1H-imidazole-4-yl]phenyl}methanesulfonamide]
18 | > 600 nM | COc1ccccc1Cn1cc(-c2ccccc2)nc1NC(C)=O [Example 9, N-[1-(2-Methoxybenzyl)-4-phenyl-1H-imidazole-2-yl]acetamide]
19 | < 600 nM | COc1cccc(OC)c1Cn1cc(-c2cccs2)nc1N [Example 19, 1-(2,6-Dimethoxybenzyl)-4-thiophene-2-yl-1H-imidazole-2-ylamine]
20 | < 600 nM | COc1ccccc1Cn1cc(-c2ccccc2)nc1N [Example 10, 1-(2-Methoxybenzyl)-4-phenyl-1H-imidazole-2-ylamine hydrochloride]
21 | < 600 nM | COc1ccccc1Cn1cc(-c2cccnc2)nc1N [Example 61, 1-(2-Methoxybenzyl)-4-pyridine-3-yl-1H-imidazole-2-ylamine]
22 | < 600 nM | COc1ccccc1Cn1cc(-c2cccc(N)c2)nc1N [Example 51, 4-(3-Aminophenyl)-1-(2-methoxybenzyl)-1H-imidazole-2-ylamine]
23 | < 600 nM | COc1ccccc1Cn1cc(-c2ccc(Oc3ccccc3)cc2)nc1N [Example 44, 1-(2-Methoxybenzyl)-4-(4-phenoxyphenyl)-1H-imidazole-2-ylamine hydrochloride]
24 | < 600 nM | COc1ccccc1Cn1cc(-c2csc(-c3ccccc3)n2)nc1N [Example 47, 1-(2-Methoxybenzyl)-4-(2-phenylthiazole-4-yl)-1H-imidazole-2-ylamine]
25 | < 600 nM | COc1ccccc1Cn1cc(-c2cccc(NS(=O)(=O)C(C)C)c2)nc1N [Example 64, Propane-2-sulfonic acid {3-[2-amino-1-(2-methoxybenzyl)-1H-imidazole-4-yl]phenyl}amide]
26 | < 600 nM | COc1ccccc1Cn1cc(-c2ccc3ccccc3c2)nc1N [Example 16, 1-(2-Methoxybenzyl)-4-naphthalene-2-yl-1H-imidazole-2-ylamine hydrochloride]
27 | < 600 nM | COc1ccccc1Cn1cc(-c2cccc(NS(=O)(=O)c3ccc(-c4ccccc4)cc3)c2)nc1N [Example 63, Biphenyl-4-sulfonic acid {3-[2-amino-1-(2-methoxybenzyl)-1H-imidazole-4-yl]phenyl}amide]
28 | > 600 nM | COc1ccc(-n2cc(Cc3ccccc3OC)c(N)n2)cc1 [Example 6, 4-(2-Methoxybenzyl)-1-(4-methoxyphenyl)-1H-pyrazole-3-ylamine]
